{"source": "patent US12364709B2", "about": "“Bioavailable poly amines” (AMINEX THERAPEUTICS, INC., priority 2016, dated 2025)", "assay": "28-day repeat-dose toxicity study, toxicokinetics of AMXT 1501 dicaprate", "type": "in vivo, beagle dogs", "details": "both sexes, beagle, dog, plasma, po", "procedure": "AMXT 1501 PK parameters were calculated for all AMXT 1501 dicaprate-dosed animals for the first dose (Day 1) and last dose (Day 28).", "note": "Like-named read-outs stand apart in the source and are kept apart here."}
{"smiles": "CCCCCCCCCCCCCCCC(=O)NCCCC[C@@H](N)C(=O)NCCCNCCCCNCCCN", "note": "[AMXT 1501 dicaprate]", "values": [{"measurement": "AUC(0-t)", "setting": "16 mg/kg/day, 16 mg/kg/day PO, DFMO 0, Day 28, M+F combined, read-out: AUC0-t Median", "result": 8120, "unit": "ng·h/mL"}, {"measurement": "AUC(0-inf)", "setting": "16 mg/kg/day, 16 mg/kg/day PO, DFMO 0, Day 28, M+F combined, read-out: AUC0-∞ Mean", "result": 8070, "unit": "ng·h/mL"}, {"measurement": "AUC(0-inf)", "setting": "16 mg/kg/day, 16 mg/kg/day PO, DFMO 0, Day 28, M+F combined, read-out: AUC0-∞ Median", "result": 8280, "unit": "ng·h/mL"}, {"measurement": "Cmax", "setting": "16 mg/kg/day, 16 mg/kg/day PO, DFMO 0, Day 28, M+F combined, read-out: Cmax Mean", "result": 286, "unit": "ng/mL"}, {"measurement": "Cmax", "setting": "16 mg/kg/day, 16 mg/kg/day PO, DFMO 0, Day 28, M+F combined, read-out: Cmax Median", "result": 309, "unit": "ng/mL"}, {"measurement": "Tmax", "setting": "16 mg/kg/day, 16 mg/kg/day PO, DFMO 0, Day 28, M+F combined, read-out: Tmax Mean", "result": 5.6, "unit": "h"}, {"measurement": "Tmax", "setting": "16 mg/kg/day, 16 mg/kg/day PO, DFMO 0, Day 28, M+F combined, read-out: Tmax Median", "result": 6, "unit": "h"}, {"measurement": "half-life", "setting": "16 mg/kg/day, 16 mg/kg/day PO, DFMO 0, Day 28, M+F combined, read-out: t1/2 Mean (converted)", "result": 25.4, "unit": "h"}, {"measurement": "half-life", "setting": "16 mg/kg/day, 16 mg/kg/day PO, DFMO 0, Day 28, M+F combined, read-out: t1/2 Median (converted)", "result": 27.8, "unit": "h"}, {"measurement": "AUC(0-t)", "setting": "16 mg/kg/day, 16 mg/kg/day PO, DFMO 50 mg/kg/day, Day 28, M+F combined, read-out: AUC0-24 hr Mean", "result": 4390, "unit": "ng·h/mL"}, {"measurement": "AUC(0-t)", "setting": "16 mg/kg/day, 16 mg/kg/day PO, DFMO 50 mg/kg/day, Day 28, M+F combined, read-out: AUC0-24 hr Median", "result": 3340, "unit": "ng·h/mL"}, {"measurement": "AUC(0-t)", "setting": "16 mg/kg/day, 16 mg/kg/day PO, DFMO 50 mg/kg/day, Day 28, M+F combined, read-out: AUC0-t Mean", "result": 9440, "unit": "ng·h/mL"}, {"measurement": "AUC(0-t)", "setting": "16 mg/kg/day, 16 mg/kg/day PO, DFMO 50 mg/kg/day, Day 28, M+F combined, read-out: AUC0-t Median", "result": 6010, "unit": "ng·h/mL"}, {"measurement": "AUC(0-inf)", "setting": "16 mg/kg/day, 16 mg/kg/day PO, DFMO 50 mg/kg/day, Day 28, M+F combined, read-out: AUC0-∞ Mean", "result": 9590, "unit": "ng·h/mL"}, {"measurement": "AUC(0-inf)", "setting": "16 mg/kg/day, 16 mg/kg/day PO, DFMO 50 mg/kg/day, Day 28, M+F combined, read-out: AUC0-∞ Median", "result": 6080, "unit": "ng·h/mL"}, {"measurement": "Cmax", "setting": "16 mg/kg/day, 16 mg/kg/day PO, DFMO 50 mg/kg/day, Day 28, M+F combined, read-out: Cmax Mean", "result": 262, "unit": "ng/mL"}, {"measurement": "Cmax", "setting": "16 mg/kg/day, 16 mg/kg/day PO, DFMO 50 mg/kg/day, Day 28, M+F combined, read-out: Cmax Median", "result": 213, "unit": "ng/mL"}, {"measurement": "Tmax", "setting": "16 mg/kg/day, 16 mg/kg/day PO, DFMO 50 mg/kg/day, Day 28, M+F combined, read-out: Tmax Mean", "result": 6.3, "unit": "h"}, {"measurement": "Tmax", "setting": "16 mg/kg/day, 16 mg/kg/day PO, DFMO 50 mg/kg/day, Day 28, M+F combined, read-out: Tmax Median", "result": 6, "unit": "h"}, {"measurement": "half-life", "setting": "16 mg/kg/day, 16 mg/kg/day PO, DFMO 50 mg/kg/day, Day 28, M+F combined, read-out: t1/2 Mean (converted)", "result": 52.8, "unit": "h"}, {"measurement": "half-life", "setting": "16 mg/kg/day, 16 mg/kg/day PO, DFMO 50 mg/kg/day, Day 28, M+F combined, read-out: t1/2 Median (converted)", "result": 57.8, "unit": "h"}, {"measurement": "AUC(0-t)", "setting": "16 mg/kg/day, 16 mg/kg/day PO, DFMO 200 mg/kg/day, Day 1, M+F combined, read-out: AUC0-24 hr Mean", "result": 2310, "unit": "ng·h/mL"}, {"measurement": "AUC(0-t)", "setting": "16 mg/kg/day, 16 mg/kg/day PO, DFMO 200 mg/kg/day, Day 1, M+F combined, read-out: AUC0-24 hr Median", "result": 2470, "unit": "ng·h/mL"}, {"measurement": "Cmax", "setting": "16 mg/kg/day, 16 mg/kg/day PO, DFMO 200 mg/kg/day, Day 1, M+F combined, read-out: Cmax Mean", "result": 152, "unit": "ng/mL"}, {"measurement": "Cmax", "setting": "16 mg/kg/day, 16 mg/kg/day PO, DFMO 200 mg/kg/day, Day 1, M+F combined, read-out: Cmax Median", "result": 171, "unit": "ng/mL"}, {"measurement": "Tmax", "setting": "16 mg/kg/day, 16 mg/kg/day PO, DFMO 200 mg/kg/day, Day 1, M+F combined, read-out: Tmax Mean", "result": 8.4, "unit": "h"}, {"measurement": "Tmax", "setting": "16 mg/kg/day, 16 mg/kg/day PO, DFMO 200 mg/kg/day, Day 1, M+F combined, read-out: Tmax Median", "result": 6, "unit": "h"}, {"measurement": "AUC(0-t)", "setting": "32 mg/kg/day, 32 mg/kg/day PO, DFMO 0, Day 1, M+F combined, read-out: AUC0-24 hr Mean", "result": 3590, "unit": "ng·h/mL"}, {"measurement": "AUC(0-t)", "setting": "32 mg/kg/day, 32 mg/kg/day PO, DFMO 0, Day 1, M+F combined, read-out: AUC0-24 hr Median", "result": 3640, "unit": "ng·h/mL"}, {"measurement": "Cmax", "setting": "32 mg/kg/day, 32 mg/kg/day PO, DFMO 0, Day 1, M+F combined, read-out: Cmax Mean", "result": 214, "unit": "ng/mL"}, {"measurement": "Cmax", "setting": "32 mg/kg/day, 32 mg/kg/day PO, DFMO 0, Day 1, M+F combined, read-out: Cmax Median", "result": 224, "unit": "ng/mL"}, {"measurement": "Tmax", "setting": "32 mg/kg/day, 32 mg/kg/day PO, DFMO 0, Day 1, M+F combined, read-out: Tmax Mean", "result": 8.6, "unit": "h"}, {"measurement": "Tmax", "setting": "32 mg/kg/day, 32 mg/kg/day PO, DFMO 0, Day 1, M+F combined, read-out: Tmax Median", "result": 9, "unit": "h"}, {"measurement": "AUC(0-t)", "setting": "32 mg/kg/day, 32 mg/kg/day PO, DFMO 0, Day 28, M+F combined, read-out: AUC0-24 hr Mean", "result": 9410, "unit": "ng·h/mL"}, {"measurement": "AUC(0-t)", "setting": "32 mg/kg/day, 32 mg/kg/day PO, DFMO 0, Day 28, M+F combined, read-out: AUC0-24 hr Median", "result": 8760, "unit": "ng·h/mL"}, {"measurement": "AUC(0-t)", "setting": "32 mg/kg/day, 32 mg/kg/day PO, DFMO 0, Day 28, M+F combined, read-out: AUC0-t Mean", "result": 24700, "unit": "ng·h/mL"}, {"measurement": "AUC(0-t)", "setting": "32 mg/kg/day, 32 mg/kg/day PO, DFMO 0, Day 28, M+F combined, read-out: AUC0-t Median", "result": 24300, "unit": "ng·h/mL"}, {"measurement": "AUC(0-inf)", "setting": "32 mg/kg/day, 32 mg/kg/day PO, DFMO 0, Day 28, M+F combined, read-out: AUC0-∞ Mean", "result": 24800, "unit": "ng·h/mL"}, {"measurement": "AUC(0-inf)", "setting": "32 mg/kg/day, 32 mg/kg/day PO, DFMO 0, Day 28, M+F combined, read-out: AUC0-∞ Median", "result": 24400, "unit": "ng·h/mL"}, {"measurement": "Cmax", "setting": "32 mg/kg/day, 32 mg/kg/day PO, DFMO 0, Day 28, M+F combined, read-out: Cmax Mean", "result": 620, "unit": "ng/mL"}, {"measurement": "Cmax", "setting": "32 mg/kg/day, 32 mg/kg/day PO, DFMO 0, Day 28, M+F combined, read-out: Cmax Median", "result": 620, "unit": "ng/mL"}, {"measurement": "Tmax", "setting": "32 mg/kg/day, 32 mg/kg/day PO, DFMO 0, Day 28, M+F combined, read-out: Tmax Mean", "result": 4.3, "unit": "h"}, {"measurement": "Tmax", "setting": "32 mg/kg/day, 32 mg/kg/day PO, DFMO 0, Day 28, M+F combined, read-out: Tmax Median", "result": 4, "unit": "h"}, {"measurement": "half-life", "setting": "32 mg/kg/day, 32 mg/kg/day PO, DFMO 0, Day 28, M+F combined, read-out: t1/2 Mean (converted)", "result": 48.7, "unit": "h"}, {"measurement": "half-life", "setting": "32 mg/kg/day, 32 mg/kg/day PO, DFMO 0, Day 28, M+F combined, read-out: t1/2 Median (converted)", "result": 53.2, "unit": "h"}]}
